ChEMBL document CHEMBL3046787, “Molecular modeling studies of some substituted chalcone derivatives as cysteine protease inhibitors” (Med Chem Res, 2012)

Test system: Plasmodium falciparum
Test: Inhibition of Plasmodium falciparum W2

| IC50 (read-out: IC50) [µM] | IC50 (read-out: pIC50 (converted)) [µM] | Structure (SMILES) |
| --- | --- | --- |
| 11.1 | 11.1 | COc1ccc(C(=O)/C=C/c2ccc(F)cc2F)c(OC)c1 |
| 3.8 | 3.8 | COc1ccc(C(=O)/C=C/c2ccc(Cl)cc2Cl)c(OC)c1 |
| 12 | 12 | COc1ccc(/C=C/C(=O)c2ccccn2)cc1 |
| 1.9 | 1.9 | COc1ccc(/C=C/C(=O)c2ccc(F)cc2F)c(OC)c1 |
| 0.9 | 0.899 | COc1ccc(/C=C/C(=O)c2ccc(Cl)cc2Cl)c(OC)c1 |
| 5 | 5 | COc1ccc(OC)c(/C=C/C(=O)c2ccc3ccccc3c2)c1 |
| 3.3 | 3.3 | COc1cccc(OC)c1/C=C/C(=O)c1ccc2ccccc2c1 |
| 4.8 | 4.8 | COc1cc(/C=C/C(=O)c2cccc3ccccc23)cc(OC)c1OC |
| 6 | 6 | COc1cc(/C=C/C(=O)c2ccc3ccccc3c2)cc(OC)c1OC |
| 7.7 | 7.69 | COc1ccc(/C=C/C(=O)c2ccc3ccccc3c2)cc1OC |
| 0.36 | 0.36 | COc1ccc(/C=C/C(=O)c2ccc(Cl)cc2Cl)c(OC)c1OC |
| 0.51 | 0.511 | COc1ccc(/C=C/C(=O)c2cc3ccccc3nc2Cl)cc1OC |
| 0.71 | 0.71 | O=C(/C=C/c1cccnc1)c1cc2ccccc2nc1Cl |
| 0.75 | 0.75 | COc1ccc(OC)c(/C=C/C(=O)c2ccc(Cl)cc2Cl)c1 |
| 0.77 | 0.769 | COc1cccc(OC)c1/C=C/C(=O)c1ccc(Cl)cc1 |
| 0.8 | 0.8 | O=C(/C=C/c1ccc(Cl)c(Cl)c1)c1ccnc2ccccc12 |
| 1 | 1 | COc1ccc(/C=C/C(=O)c2cc3ccccc3nc2Cl)c(OC)c1 |
| 1 | 1 | O=C(/C=C/c1ccc(F)cc1F)c1cc2ccccc2nc1Cl |
| 0.92 | 0.92 | COc1ccc(OC)c(/C=C/C(=O)c2cccc(Cl)c2Cl)c1 |
| 1.14 | 1.14 | COc1ccc(/C=C/C(=O)c2cccc(Cl)c2Cl)cc1OC |
| 1.38 | 1.38 | COc1ccc(/C=C/C(=O)c2cccc(Cl)c2Cl)c(OC)c1 |

| IC50 (read-out: IC50) [µM] | IC50 (read-out: pIC50 (converted)) [µM] | Structure (SMILES) |
| --- | --- | --- |
| 2.09 | 2.09 | COc1ccc(/C=C/C(=O)c2ccc(F)c(F)c2)c(OC)c1 |
| 5 | 5 | COc1ccc(/C=C/C(=O)c2cccc3ccccc23)cc1OC |
| 4.3 | 4.3 | COc1cc(/C=C/C(=O)c2cccc3ccccc23)cc(OC)c1 |
| 9.5 | 9.51 | COc1cc(/C=C/C(=O)c2ccc3ccccc3c2)cc(OC)c1 |
| 5.8 | 5.79 | COc1ccc(/C=C/C(=O)c2cccc3ccccc23)c(OC)c1OC |
| 10 | 10 | COc1ccc(/C=C/C(=O)c2cccnc2)cc1 |
| 12 | 12 | COc1ccc(/C=C/C(=O)c2ccncc2)cc1 |
| 1.7 | 1.7 | COc1ccc(/C=C/C(=O)c2ccccn2)c(OC)c1 |
| 2.7 | 2.7 | COc1ccc(/C=C/C(=O)c2cccnc2)c(OC)c1 |
| 1.4 | 1.4 | COc1ccc(OC)c(/C=C/C(=O)c2ccccn2)c1 |
| 2.3 | 2.3 | COc1ccc(/C=C/C(=O)c2ccccn2)c(OC)c1OC |
| 3.9 | 3.9 | COc1ccc(/C=C/C(=O)c2cccnc2)c(OC)c1OC |
| 3.2 | 3.2 | COc1ccc(/C=C/C(=O)c2ccncc2)c(OC)c1OC |
| 0.23 | 0.23 | O=C(/C=C/c1cc(Cl)ccc1Cl)c1ccnc2ccccc12 |
| 10 | 10 | COc1ccc(/C=C/C(=O)c2cccc3ccccc23)cc1 |
| 4.6 | 4.6 | COc1ccc(/C=C/C(=O)c2cccc3ccccc23)c(OC)c1 |
| 2.8 | 2.8 | COc1ccc(OC)c(/C=C/C(=O)c2cccc3ccccc23)c1 |
| 3.1 | 3.1 | COc1cccc(OC)c1/C=C/C(=O)c1cccc2ccccc12 |
| 1.18 | 1.18 | O=C(/C=C/c1ccc(-n2ccnc2)cc1)c1ccc(Cl)cc1Cl |
| 0.75 | 0.75 | COc1ccc(/C=C/C(=O)c2ccc(C(F)(F)F)cc2)c(OC)c1 |
